# Values of other authors in patent US9562052B2, “Bicyclicpyridine derivatives” (Hoffmann-La Roche Inc., priority 2012, dated 2017).
compound,measurement,setting,value
CCc1c(-c2ccccc2)c(-c2ccccc2)nn1-c1ccccc1-c1cccc(OCC(=O)O)c1 [BMS309403],body weight and energy consumption,ob/ob mice,no change
same,hepatic steatosis,ob/ob mice,reduction
same,glucose uptake in muscle and adipose,ob/ob mice; clamp study,increased
same,hepatic glucose production,ob/ob mice; clamp study,reduction
same,atherosclerotic plaques formation,ApoE KO mice,decrease
